Experiments:
[1] = Kinetics of the coupling reaction of iminosydnones with BCN (HPLC monitoring); type: physicochemical; conditions: 100 μM iminosydnone, 150 μM BCN, PBS 0.1M (pH 7.4) containing 10% DMSO
Method: (§1) The kinetics of the coupling reaction of different iminosydnones with two cyclic alkynes was studied, according to the following scheme.
(§2) Reactions of iminosydnones with BCN (Bicyclononyne) or TMTH were carried out in PBS/DMSO (9:1) mixtures at 100 μM concentration of sydnones and 150 μM concentration of BCN or TMTH using the following procedure:
(§3) To 900 μL of phosphate buffered saline (PBS, 100 mM) was added 87.5 μL of DMSO, 10 μL of the solution of benzamide (internal standard, 100 mM in DMSO), 1 μL of the solution of iminosydnone (100 mM in DMSO) and 1.5 μL of the solution of BCN or TMTH (100 mM in DMSO). The reaction mixture was injected in HPLC every 30 min and the conversion was followed by measuring the normalized sydnone peak area.
(§4) Second order reaction rate was determined by plotting ln([A]/[B])/([A]−[B]) versus time and analyzing by linear regression (Equation). Second order rate constant corresponds to the determined slope.
(§5) Equation. [A]—concentration of iminosydnones (M); [B]—concentration of BCN (M); t—reaction time (sec); k—reaction rate (M^−1·sec^−1)

[2] = Kinetics of the coupling reaction of iminosydnones with TMTH (HPLC monitoring); type: physicochemical; conditions: 100 μM iminosydnone, 150 μM TMTH, PBS 0.1M (pH 7.4) containing 10% DMSO
Method: as §1, §2, §3, §4, §5

SMILES	K (BCN) [1]	K (TMTH) [2] [M⁻¹ s⁻¹]
Cc1ccc(-[n+]2cc([N-]C(=O)OCc3ccccc3)on2)cc1 [Im11]	0.026 M⁻¹ s⁻¹	–
Cc1ccc(-[n+]2cc([N-]C(=O)CCc3ccccc3)on2)cc1 [Im4]	0.034 M⁻¹ s⁻¹	–
N#CC#Cc1ccc(NC(=O)[N-]c2c[n+](-c3ccc(C(=O)O)cc3)no2)cc1 [Im14, (3-(4-carboxyphenyl)-1,2,3-oxadiazol-3-ium-5-yl)((4-(cyanoethynyl)phenyl)carbamoyl)amide]	0.132 M⁻¹ s⁻¹	–
Cc1ccc(NC(=O)[N-]c2c[n+](-c3ccccc3)no2)cc1 [Im5]	0.069 M⁻¹ s⁻¹	43.1
Cc1ccc(-[n+]2noc([N-]C(=O)NCc3ccccc3)c2Br)cc1 [Im10]	0.060 M⁻¹ s⁻¹	–
Cc1ccc(-[n+]2noc([N-]C(=O)OCc3ccccc3)c2Br)cc1 [Im12]	0.150 M⁻¹ s⁻¹	–
CC(=O)[N-]c1c[n+](-c2ccccc2)no1 [Im2]	0.002 M⁻¹ s⁻¹	2.2
CCOC(=O)c1ccc(NC(=O)[N-]c2c[n+](-c3ccc(O)cc3)no2)cc1 [Im8]	0.008 M⁻¹ s⁻¹	2.5
[NH-]c1c[n+](-c2ccccc2)no1 [Im1]	no reaction	–
Cc1ccc(NC(=O)[N-]c2c[n+](-c3ccc(O)cc3)no2)cc1 [Im6]	0.008 M⁻¹ s⁻¹	4.1
Cc1ccc(-[n+]2cc([N-]C(=O)NCc3ccccc3)on2)cc1 [Im9]	0.004 M⁻¹ s⁻¹	–
Cc1ccc(-[n+]2cc([N-]C(=O)Cc3ccccc3)on2)cc1 [Im3]	0.004 M⁻¹ s⁻¹	–
Cc1ccc(NC(=O)[N-]c2c[n+](-c3ccc(C(=O)O)cc3)no2)cc1 [Im7]	0.108 M⁻¹ s⁻¹	61.2

From US20190144401A1, “IMINOSYDNONE DERIVATIVES FOR CONJUGATION AND RELEASE OF COMPOUNDS OF INTEREST” (UNIVERSITE DE STRASBOURG, priority 2014, published 2019)
